Test results from paper PMC8956739, “A synthetic lipopeptide targeting top-priority multidrug-resistant Gram-negative pathogens” (Nature Communications, 2022).
Converted amounts (≈) assume the structure as drawn. “And” between values parts separate entries of the source, which are not always exact repeats. Identical values can stand only once. Residues, ends and D or L forms follow the SMILES beside them.

Assays:
[1] = tested on: P. aeruginosa ATCC 27853; test: Neutropenic mouse bloodstream infection model; type: in vivo; settings: single IV dose 4 mg/kg; for Log10 CFU/mL blood at 4 h, Mean / Δlog10 CFU/mL blood (mean) / Log10 CFU/mL blood at 4 h, single mouse: 4 h; for Δlog10 CFU/mL blood (mean): treated minus control, mean of replicates; for Δlog10 CFU/mL blood (mean) / Log10 CFU/mL blood at 4 h, single mouse / Delta Log10 CFU/mL blood at 4 h, single mouse: 4 mg/kg; for Delta Log10 CFU/mL blood at 4 h, single mouse: treated mouse minus mean of vehicle mice
Procedure, shortened: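 Female Swiss mice made neutropenic with cyclophosphamide (150 mg/kg day −4, 100 mg/kg day −1), infected IV with 50 µL of 4 × 10^8 CFU/mL. Lipopeptide 4 mg/kg (free base) IV at 2 h post-inoculation, n = 3. Efficacy = Δlog10 CFU/mL blood versus saline at 4 h post-dose.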

[2] = tested on: Swiss mice, kidney; test: Nephrotoxicity in mice (kidney histopathology); type: in vivo, mouse; settings: for Kidney histopathology (SQS Score): 72 mg/kg/d subcutaneously in six divided doses every 2 h, n = 3; for Kidney histopathology, mice with the SQS score: mouse, in vivo
Procedure, shortened: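 Female Swiss mice (7-week-old, 22–28 g) received lipopeptides in saline either s.c. at 12 mg/kg ×6 every 2 h (total 72 mg/kg, n = 3) or i.p. at 20 or 25 mg/kg ×6 every 2 h (total 120 mg/kg, n = 6; 150 mg/kg, n = 3). Right kidney collected 20 h after last dose, fixed in 10% buffered formalin (pH 7.4), histology scored blinded.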

[3] = Acute toxicity in mice (maximum tolerated dose, IV bolus); type: in vivo, mouse; settings: mouse, in vivo, iv, single IV bolus dose, replicates 1-4; read-out: MTD, single replicate
Procedure: (§1) Lipopeptide solutions were prepared in 0.9% saline and stored at 4 °C before use. Swiss mice (female, 7-week-old, 22–28 g) were used in the study. A mouse was administered an intravenous bolus of the lipopeptide (mg/kg free base) through a lateral tail vein (≤0.1 mL). After the injection, the mouse was released back into the cage and monitored for clinical signs of toxicity from 0 to 24 h after injection as follows: every 10 min in the first 2 h, every half hour from 2 to 4 h, every hour from 4 to 12 h, and every 2 h from 12 to 24 h.

[4] = tested on: Swiss mice; test: as above; type: in vivo, mouse; settings: replicates 1-4
Procedure: as §1

[5] = tested on: A. baumannii ATCC 19606; type: cell-based, Acinetobacter baumannii; settings: ATCC 19606
Procedure, shortened: (§2)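 Compounds were serially diluted in CaMHB, bacteria were added, and the lowest inhibitory concentration was recorded after broth microdilution testing.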

[6] = tested on: A. baumannii FADDI-AB030; type: cell-based, Acinetobacter baumannii; settings: FADDI-AB030
Procedure, shortened: (§3)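 MICs were determined by broth microdilution in cation-adjusted Mueller–Hinton broth (CaMHB), with clinical isolates tested alongside ATCC strains.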

[7] = tested on: A. baumannii FADDI-AB034; type: cell-based, Acinetobacter baumannii; settings: FADDI-AB034
Procedure, shortened: as §3

[8] = tested on: P. aeruginosa ATCC 27853; type: cell-based, Pseudomonas aeruginosa; settings: ATCC 27853
Procedure, shortened: as §2

[9] = tested on: P. aeruginosa FADDI-PA025; type: cell-based, Pseudomonas aeruginosa; settings: FADDI-PA025
Procedure, shortened: as §3

[10] = tested on: P. aeruginosa FADDI-PA038; type: cell-based, Pseudomonas aeruginosa; settings: FADDI-PA038
Procedure, shortened: as §3

[11] = tested on: K. pneumoniae FADDI-KP032; type: cell-based, Klebsiella pneumoniae; settings: FADDI-KP032
Procedure, shortened: as §3

[12] = tested on: K. pneumoniae FADDI-KP065; type: cell-based, Klebsiella pneumoniae; settings: FADDI-KP065
Procedure, shortened: as §3

[13] = tested on: human subjects; settings: in vivo; cited from earlier work

CC[C@@H]1NC(=O)[C@@H](CC(C)C)NC(=O)[C@H](CCN)NC(=O)[C@@H](NC(=O)[C@H](CN)NC(=O)[C@@H](NC(=O)[C@H](CCN)NC(=O)c2cc(Cl)cc(Cl)c2)[C@@H](C)O)CCNC(=O)[C@H]([C@@H](C)O)NC(=O)[C@H](CCN)NC(=O)[C@H](CCN)NC1=O [Lipopeptide F381] (HELM PEPTIDE1{[O=C(c1cc(Cl)cc(Cl)c1)[*:2]].[Dab].T.[NC[C@H](N[*:1])C(=O)[*:2]].[Dab].[Dab].[dL].[Abu].[Dab].[Dab].T}$PEPTIDE1,PEPTIDE1,5:R3-11:R2$$$V2.0)
Log10 CFU/mL blood at 4 h, Mean [1]: 4.49 Log10 CFU/mL blood | Δlog10 CFU/mL blood (mean) [1]: −3.45 log10 CFU/mL blood | Log10 CFU/mL blood at 4 h, single mouse [1]: 4.47 Log10 CFU/mL blood and 4.87 Log10 CFU/mL blood and 4.12 Log10 CFU/mL blood | Delta Log10 CFU/mL blood at 4 h, single mouse [1]: -3.47 Log10 CFU/mL blood and -3.07 Log10 CFU/mL blood and -3.82 Log10 CFU/mL blood | Kidney histopathology (SQS Score) [2]: +1 (SQS + 1 = mild damage (overall score, 1 to <15)) | Kidney histopathology, mice with the SQS score [2]: 1/3 | MTD [3]: 5 mg/kg | MTD, single replicate [4]: 4.7 mg/kg and 4 mg/kg | MIC A. baumannii ATCC 19606 [5]: 0.5 µg/mL (≈ 0.431 µM) | MIC A. baumannii FADDI-AB030 [6]: 0.25 µg/mL (≈ 0.215 µM) | MIC A. baumannii FADDI-AB034 [7]: 0.25 µg/mL (≈ 0.215 µM) | MIC P. aeruginosa ATCC 27853 [8]: 0.25 µg/mL (≈ 0.215 µM) | MIC, No Survanta [8]: 0.5 µg/mL (≈ 0.431 µM) | MIC P. aeruginosa FADDI-PA025 [9]: 0.5 µg/mL (≈ 0.431 µM) | MIC P. aeruginosa FADDI-PA038 [10]: 1 µg/mL (≈ 0.862 µM) | MIC K. pneumoniae FADDI-KP032 [11]: <0.125 µg/mL | MIC K. pneumoniae FADDI-KP065 [12]: 0.5 µg/mL (≈ 0.431 µM)

CC[C@@H]1NC(=O)[C@@H](CC(C)C)NC(=O)[C@H](CCN)NC(=O)[C@@H](NC(=O)[C@H](CN)NC(=O)[C@@H](NC(=O)[C@H](CCN)NC(=O)c2ccc(-c3ccccc3)cc2)[C@@H](C)O)CCNC(=O)[C@H]([C@@H](C)O)NC(=O)[C@H](CCN)NC(=O)[C@H](CCN)NC1=O [Lipopeptide F477] (HELM PEPTIDE1{[O=C(c1ccc(-c2ccccc2)cc1)[*:2]].[Dab].T.[NC[C@H](N[*:1])C(=O)[*:2]].[Dab].[Dab].[dL].[Abu].[Dab].[Dab].T}$PEPTIDE1,PEPTIDE1,5:R3-11:R2$$$V2.0)
Log10 CFU/mL blood at 4 h, Mean [1]: 3.39 Log10 CFU/mL blood | Δlog10 CFU/mL blood (mean) [1]: −3.89 log10 CFU/mL blood | Log10 CFU/mL blood at 4 h, single mouse [1]: 3.09 Log10 CFU/mL blood and 3.94 Log10 CFU/mL blood and 3.15 Log10 CFU/mL blood | Delta Log10 CFU/mL blood at 4 h, single mouse [1]: -4.19 Log10 CFU/mL blood and -3.34 Log10 CFU/mL blood and -4.13 Log10 CFU/mL blood | Kidney histopathology (SQS Score) [2]: +1 (SQS + 1 = mild damage (overall score, 1 to <15)) | Kidney histopathology, mice with the SQS score [2]: 1/3 | MTD [3]: 10 mg/kg | MTD, single replicate [4]: 10.1 mg/kg and 11.1 mg/kg | MIC A. baumannii ATCC 19606 [5]: 1 µg/mL (≈ 0.857 µM) | MIC A. baumannii FADDI-AB030 [6]: 0.5 µg/mL (≈ 0.428 µM) | MIC A. baumannii FADDI-AB034 [7]: 0.25 µg/mL (≈ 0.214 µM) | MIC P. aeruginosa ATCC 27853 [8]: 1 µg/mL (≈ 0.857 µM) | MIC, No Survanta [8]: 1 µg/mL (≈ 0.857 µM) | MIC P. aeruginosa FADDI-PA025 [9]: 1 µg/mL (≈ 0.857 µM) | MIC P. aeruginosa FADDI-PA038 [10]: 1 µg/mL (≈ 0.857 µM) | MIC K. pneumoniae FADDI-KP032 [11]: 0.25 µg/mL (≈ 0.214 µM) | MIC K. pneumoniae FADDI-KP065 [12]: 0.25 µg/mL (≈ 0.214 µM)

SPR206
single dose at which neurotoxicity was observed [13]: exceeding 200 mg
